± gives the standard deviation of the averaged measurements.
Key:
PLX-4720 = compound: CCCS(=O)(=O)Nc1ccc(F)c(C(=O)c2c[nH]c3ncc(Cl)cc23)c1F [PLX-4720]; assay: surviving fraction relative to DMSO-only wells; higher = less growth inhibition; conditions: exposure time: 5 days
Method in brief: (§1)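 Five days of continuous inhibitor exposure, at 0.5, 1, 5, 10, 50, 100, 500 and 1000 nM, followed a 24-hour period after log-phase tumour cell lines were seeded at 250–500 cells per well in 384-well plates. Surviving fraction was derived from CellTiter-Glo luminescence relative to the median of DMSO-only wells. Plates were read after 10 minutes at room temperature, and lines screened three times were kept only if replicate Pearson r >0.7 and median Z' >0.3.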

MK0752 = compound: O=C(O)CC[C@H]1CC[C@@](c2cc(F)ccc2F)(S(=O)(=O)c2ccc(Cl)cc2)CC1 [MK0752]; assay: as above; conditions: exposure time: 5 days
Method in brief: as §1

Test System | surviving fraction (PLX-4720; 0.5 nM) | surviving fraction (PLX-4720; 1 nM) | surviving fraction (PLX-4720; 5 nM) | surviving fraction (PLX-4720; 10 nM) | surviving fraction (PLX-4720; 50 nM) | surviving fraction (PLX-4720; 100 nM) | surviving fraction (PLX-4720; 500 nM) | surviving fraction (PLX-4720; 1000 nM) | surviving fraction (MK0752; 0.5 nM) | surviving fraction (MK0752; 1 nM) | surviving fraction (MK0752; 5 nM) | surviving fraction (MK0752; 10 nM) | surviving fraction (MK0752; 50 nM) | surviving fraction (MK0752; 100 nM) | surviving fraction (MK0752; 500 nM) | surviving fraction (MK0752; 1000 nM)
JIMT1 BREAST | 0.857 ± 0.025 | 0.862 ± 0.042 | 0.894 ± 0.05 | 0.887 ± 0.046 | 0.966 ± 0.067 | 1.01 ± 0.06 | 0.947 ± 0.066 | 0.976 ± 0.037 | 0.966 ± 0.0054 | 0.988 ± 0.018 | 0.997 ± 0.042 | 0.97 ± 0.042 | 0.984 ± 0.021 | 1.04 ± 0.036 | 0.939 ± 0.021 | 0.997 ± 0.018
JURKAT HAEMATOPOIETIC AND LYMPHOID TISSUE | 0.9917 ± 0.0087 | 0.964 ± 0.02 | 0.935 ± 0.026 | 0.972 ± 0.04 | 0.981 ± 0.026 | 0.996 ± 0.059 | 1.03 ± 0.02 | 1.06 ± 0.016 | 1.06 ± 0.026 | 1.07 ± 0.021 | 1.07 ± 0.012 | 1.02 ± 0.051 | 1.04 ± 0.017 | 1.01 ± 0.026 | 0.988 ± 0.04 | 0.976 ± 0.023
KPD BONE | 0.917 ± 0.082 | 0.916 ± 0.017 | 0.973 ± 0.024 | 0.982 ± 0.011 | 1.01 ± 0.075 | 0.988 ± 0.075 | 0.932 ± 0.085 | 0.9813 ± 0.0098 | 0.998 ± 0.054 | 0.986 ± 0.046 | 1.12 ± 0.042 | 1.05 ± 0.035 | 1.053 ± 0.0087 | 1.1 ± 0.073 | 0.951 ± 0.067 | 0.915 ± 0.06
LM7 BONE | 0.725 ± 0.067 | 0.715 ± 0.026 | 0.809 ± 0.033 | 0.825 ± 0.03 | 0.884 ± 0.066 | 0.948 ± 0.069 | 0.871 ± 0.028 | 0.87 ± 0.031 | 0.915 ± 0.045 | 0.93 ± 0.078 | 1.08 ± 0.096 | 0.996 ± 0.098 | 1.03 ± 0.035 | 1.05 ± 0.048 | 0.937 ± 0.11 | 0.945 ± 0.063
MCF7 BREAST | 0.746 ± 0.042 | 0.873 ± 0.059 | 0.831 ± 0.033 | 0.83 ± 0.035 | 0.83 ± 0.014 | 0.915 ± 0.022 | 0.851 ± 0.021 | 0.899 ± 0.048 | 0.922 ± 0.075 | 0.916 ± 0.04 | 0.916 ± 0.0061 | 0.905 ± 0.076 | 0.976 ± 0.051 | 0.913 ± 0.07 | 0.964 ± 0.067 | 0.94 ± 0.029
MDAMB134 BREAST | 0.624 ± 0.088 | 0.701 ± 0.076 | 0.715 ± 0.014 | 0.78 ± 0.25 | 0.754 ± 0.09 | 0.9355 ± 0.0021 | 0.726 ± 0.076 | 0.76 ± 0.054 | 1.08 ± 0.067 | 1.14 ± 0.093 | 0.96 ± 0.16 | 1.16 ± 0.079 | 0.922 ± 0.035 | 1.09 ± 0.14 | 1 ± 0.063 | 0.934 ± 0.014
MDAMB157 BREAST | 0.848 ± 0.032 | 0.962 ± 0.069 | 0.958 ± 0.079 | 1 ± 0.093 | 0.914 ± 0.094 | 1.01 ± 0.027 | 0.868 ± 0.082 | 0.86 ± 0.039 | 0.881 ± 0.054 | 0.981 ± 0.045 | 0.969 ± 0.14 | 1.05 ± 0.022 | 1.11 ± 0.16 | 1.02 ± 0.15 | 0.971 ± 0.07 | 0.962 ± 0.065
MDAMB231 BREAST | 0.936 ± 0.018 | 0.964 ± 0.017 | 0.969 ± 0.024 | 0.9755 ± 0.0065 | 1.01 ± 0.031 | 1.03 ± 0.012 | 1.01 ± 0.011 | 1.03 ± 0.038 | 0.984 ± 0.033 | 0.993 ± 0.015 | 1.02 ± 0.019 | 1.01 ± 0.02 | 1.01 ± 0.013 | 1.01 ± 0.018 | 0.9137 ± 0.0079 | 0.877 ± 0.01
MDAMB361 BREAST | 0.888 ± 0.076 | 0.865 ± 0.035 | 0.8033 ± 0.0065 | 0.792 ± 0.035 | 0.991 ± 0.074 | 0.918 ± 0.097 | 0.96 ± 0.097 | 0.86 ± 0.078 | 0.833 ± 0.044 | 0.904 ± 0.077 | 0.873 ± 0.044 | 0.851 ± 0.084 | 0.893 ± 0.06 | 0.91 ± 0.064 | 0.884 ± 0.056 | 0.825 ± 0.073
MDAMB436 BREAST | 0.754 ± 0.019 | 0.831 ± 0.092 | 0.837 ± 0.052 | 0.821 ± 0.024 | 0.9 ± 0.096 | 0.943 ± 0.066 | 0.901 ± 0.062 | 0.909 ± 0.1 | 0.928 ± 0.052 | 0.895 ± 0.12 | 0.885 ± 0.051 | 0.901 ± 0.097 | 1.02 ± 0.13 | 0.881 ± 0.08 | 0.897 ± 0.062 | 0.856 ± 0.036
MDAMB453 BREAST | 0.963 ± 0.054 | 1.01 ± 0.048 | 1.04 ± 0.071 | 1.01 ± 0.044 | 0.977 ± 0.075 | 1.03 ± 0.083 | 1.03 ± 0.044 | 1.03 ± 0.042 | 1.04 ± 0.078 | 1.06 ± 0.052 | 1.1 ± 0.023 | 1.09 ± 0.051 | 1.08 ± 0.049 | 1.14 ± 0.034 | 1.01 ± 0.029 | 1.07 ± 0.043
MDAMB468 BREAST | 0.827 ± 0.026 | 0.828 ± 0.0072 | 0.895 ± 0.028 | 0.928 ± 0.024 | 1.04 ± 0.03 | 1.08 ± 0.037 | 0.961 ± 0.045 | 0.924 ± 0.025 | 1.03 ± 0.085 | 1.01 ± 0.074 | 1.1 ± 0.035 | 1.07 ± 0.07 | 1.17 ± 0.023 | 1.17 ± 0.028 | 1.07 ± 0.035 | 1.1 ± 0.035
MFM223 BREAST | 0.709 ± 0.032 | 0.758 ± 0.066 | 0.691 ± 0.098 | 0.754 ± 0.057 | 0.97 ± 0.11 | 1.01 ± 0.062 | 0.981 ± 0.025 | 1.01 ± 0.11 | 1.21 ± 0.047 | 1.14 ± 0.13 | 1.16 ± 0.048 | 1.155 ± 0.0068 | 1.19 ± 0.03 | 1.23 ± 0.016 | 1.19 ± 0.1 | 1.19 ± 0.067
MG63 BONE | 0.875 ± 0.01 | 0.884 ± 0.025 | 0.926 ± 0.016 | 0.937 ± 0.016 | 0.941 ± 0.012 | 0.958 ± 0.015 | 0.933 ± 0.013 | 0.963 ± 0.033 | 1.07 ± 0.047 | 1.07 ± 0.033 | 1.11 ± 0.037 | 1.08 ± 0.022 | 1.13 ± 0.055 | 1.1 ± 0.029 | 0.987 ± 0.029 | 0.955 ± 0.02
MHM BONE | 0.9713 ± 0.0025 | 0.96 ± 0.016 | 1 ± 0.023 | 1.02 ± 0.021 | 0.97 ± 0.022 | 1.01 ± 0.031 | 0.949 ± 0.0092 | 1.01 ± 0.038 | 1 ± 0.032 | 1.04 ± 0.029 | 1.06 ± 0.029 | 1.06 ± 0.043 | 1.08 ± 0.029 | 1.08 ± 0.013 | 0.975 ± 0.025 | 0.989 ± 0.026
NCIH441 LUNG | 0.899 ± 0.056 | 0.906 ± 0.072 | 0.919 ± 0.1 | 0.965 ± 0.016 | 0.933 ± 0.045 | 0.968 ± 0.025 | 0.961 ± 0.044 | 0.898 ± 0.085 | 0.971 ± 0.21 | 1 ± 0.17 | 1.11 ± 0.057 | 1.08 ± 0.099 | 1.02 ± 0.03 | 1.05 ± 0.061 | 1.07 ± 0.11 | 0.974 ± 0.065
